Test [1] relates to Human RSV-A (“Long” strain). Kind of test: RSV-A assay: CPE in Hep-2 cells, ATPlite readout. It counts as cell-based. The settings on record: MOI 0.1, 5-day incubation. The source says:
Hep-2 cells, (originally derived from tumors grown in irradiated-cortisonised weanling rats that had been injected with epidermoid carcinoma tissue from a person's larynx, but later found to be indistinguishable from HeLa cells by PCR DNA analysis), were used for the culturing of genotype A, “Long” strain RSV. Flasks were inoculated with RSV and viral stocks were collected once cytopathic effect (CPE) was greater than 90%. Viral stocks in 25% sucrose media were snap frozen using liquid nitrogen to increase viral stability. Viral stock titers were quantified by tissue culture infectious dose 50% (TCID50) using 8,000 cells per well and 3-fold viral dilutions across a 96-well plate, cultured for 4 days. Viral stock titers were also quantified by a plaque forming unit assay, as described elsewhere.
Following extensive parameter testing, the final assay is run as follows: Hep-2 cells are seeded into the inner 60 wells of a 96-well plate at 8,000 cells per well in a volume of 50 μL using Growth Media (DMEM without phenol red, 1% L-Glut, 1% Penn/Strep, 1% nonessential amino acids, 10% heat-inactivated FBS). 2-fold serial dilutions of control and test compounds are added to the wells in duplicate in a total volume of 25 μL. Viral stock is then added to the wells at a multiplicity of infection (MOI) of 0.1 in a volume of 25 μL, bringing the total volume of each well to 100 μL. The MOI is calculated using the PFU/mL, or TCID50 if unavailable. Each 96-well plate has a control column of 6 wells with cells and virus but no compound (negative control, max CPE), a column with cells but no compound or virus (positive control, minimum CPE), and a column with no cells or virus or compound (background plate/reagent control). The control wells with cells but no virus are given an additional 25 μL of growth media containing an equal quantity of sucrose as those wells receiving the viral stock in order to keep consistent in media and volume conditions. The outer wells of the plate are filled with 125 μL of moat media (DMEM, 100 Penn/Strep) to act as a thermal and evaporative moat around the test wells. Following a 5-day incubation period, the plates are read using ATPlite (50 uL added per well), which quantifies the amount of ATP (a measure of cell health) present in each well. Assay plates are read using the Envision luminometer. […] EC50 ranges are as follows: A<0.01 μM; B 0.01-0.05 μM; C>0.05 μM.
For orientation: ATP-based viability assays read luminescence as a measure of living cells.

A further test relates to HMPV A2 TN/94-49. The test can be described thus: HMPV antiviral assay: LLC-MK2 cells, ATP-Lite readout. The format is cell-based. The settings on record: MOI 0.005, 7 days incubation. The procedure, abridged: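 LLC-MK2 cells (5,000/well) were infected in suspension with HMPV A2 TN/94-49 at MOI 0.005 in serum-free OptiMEM with 2 μg/mL final TPCK-trypsin, then incubated for 7 days at 37 °C. Compounds were tested in duplicate from 2 μM in 10-point 2.5-fold dilutions. ATP-Lite luminescence, normalised to virus-only and cells-only controls as % cell health, gave EC50 by four-parameter fit.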

[2] abbreviates: human respiratory syncytial virus, 120 h.

Some results are limits rather than exact numbers.

Drawing on patent US12162857B2, “Antiviral compounds” (priority 2022, dated 2024), this text covers EC50 for 35 compounds.

As usually defined, the EC50 is the midpoint of the concentration-response curve. Higher therefore signals lower potency in that assay. As for `Cc1nc2c(OC3CC3)cc(C(=O)NC[C@](O)(c3cc(C4(O)CC4)c(F)c(-c4ccc(F)cc4)n3)C3CC3)cc2cc1Cl` (single isomer, unassigned) [Example 49], the EC50 was < 10 nM in test [1] (setting [2]) and > 1000 nM in the test with HMPV A2 TN/94-49 (LLC-MK2, 168 h).
The corresponding values for `COc1cc(C(=O)NC[C@](O)(c2cc(C3(O)CC3)c(F)c(-c3ccc(F)cc3)n2)C2CC2)cc2cn(C3CC3)nc12` (single isomer, unassigned) [Example 50] are < 10 nM and > 1000 nM.
Taken in the same sequence, the figures for `Cc1nc2c(OC(F)F)cc(C(=O)NC[C@](O)(c3cc(C4(O)CC4)c(F)c(-c4ccc(F)cc4)n3)C3CC3)cc2cc1Br` (single isomer, unassigned) [Example 51] were 10 to 50 nM and > 1000 nM.
The corresponding values for `COc1cc(C(=O)NC[C@@](O)(c2ccccc2)c2cc(C(C)(C)O)c(Cl)c(-c3cc(Cl)c(F)cc3F)n2)cc2cn(C3CC3)nc12` (single isomer, unassigned) [Example 132] are < 10 nM and < 1000 nM.
On to `COc1cc(C(=O)NC[C@](O)(c2cc(C(C)(C)O)c(F)c(-c3ccc(F)cc3)n2)C2CC2)cc2cn(C3CC3)nc12` [Example 1], for which the EC50 in test [1] (setting [2]) is < 10 nM; in the test with HMPV A2 TN/94-49 (LLC-MK2, 168 h) it was < 1000 nM.
Consider `COc1cc(C(=O)NC[C@](O)(c2cc(C(C)(C)O)c(F)c(-c3ccc(F)cc3)n2)C2CC2)cc2cn(C(F)F)nc12` [Example 2], for which the EC50 is < 10 nM in test [1] (setting [2]) and < 1000 nM with HMPV A2 TN/94-49 (LLC-MK2, 168 h).
On to `CC(C)(O)c1cc([C@@](O)(CNC(=O)c2ccc3nn(C4CC4)cc3c2)C2CC2)nc(-c2ccc(F)cc2)c1F` [Example 3], for which the half-maximal effective concentration (EC50) in test [1] (setting [2]) is 10 to 50 nM; in the test on HMPV A2 TN/94-49 (LLC-MK2, 168 h) it was > 1000 nM.
Consider `COc1cc(C(=O)NC[C@](O)(c2cc(C(C)(C)O)c(F)c(-c3ccc(F)cc3)n2)C2CC2)cc2cn(C3(F)CC3)nc12` [Example 4], for which the EC50 in test [1] (setting [2]) is < 10 nM; in the test with HMPV A2 TN/94-49 (LLC-MK2, 168 h), < 1000 nM.
As to `CC(C)(O)c1cc([C@@](O)(CNC(=O)c2cc(OC3CC3)c3nn(C4(F)CC4)cc3c2)C2CC2)nc(-c2ccc(F)cc2)c1F` [Example 5], the EC50 in test [1] (setting [2]) was < 10 nM; in the test on HMPV A2 TN/94-49 (LLC-MK2, 168 h) it was < 1000 nM.
The corresponding values for `CC(C)(O)c1cc([C@@](O)(CNC(=O)c2cc(Cl)c3nn(C4CC4)cc3c2)C2CC2)nc(-c2ccc(F)cc2)c1F` [Example 6] are < 10 nM and < 1000 nM.
The corresponding values for `COc1cc(C(=O)NC[C@](O)(c2cc(C3(C#N)CC3)c(F)c(-c3cc(Cl)c(F)cc3F)n2)C2CC2)cc2cn(C(F)F)nc12` [Example 10] are 10 to 50 nM and > 1000 nM.
On to `COc1cc(C(=O)NC[C@](O)(c2cc(C(C)(C)O)c(F)c(-c3cc(Cl)c(F)cc3F)n2)C2CC2)cc2cn(C3CC3)nc12` [Example 52], for which the EC50 in test [1] (setting [2]) is < 10 nM; in the test with HMPV A2 TN/94-49 (LLC-MK2, 168 h) it was < 1000 nM.
Taken in the same sequence, the figures for `COc1cc(C(=O)NC[C@](O)(c2cc(C(C)(C)O)c(F)c(-c3cc(Cl)c(F)cc3F)n2)C2CC2)cc2cc(Cl)c(C)nc12` [Example 57] were < 10 nM and < 1000 nM.
The corresponding values for `Cc1nc2c(OC(F)F)cc(C(=O)NC[C@](O)(c3cc(C(C)(C)O)c(F)c(-c4cc(Cl)c(F)cc4F)n3)C3CC3)cc2cc1Br` [Example 59] are < 10 nM and > 1000 nM.
The corresponding values for `COc1cc(C(=O)NC[C@@](O)(c2ccccc2)c2cc(C(C)(C)O)c(F)c(-c3cc(Cl)c(F)cc3F)n2)cc2cn(C(F)F)nc12` [Example 62] are < 10 nM and < 1000 nM.
Consider `COc1cc(C(=O)NC[C@@](O)(c2ccccc2)c2cc(C(C)(C)O)c(F)c(-c3cc(Cl)c(F)cc3F)n2)cc2cc(C3CC3)nn12` [Example 64], for which the EC50 in test [1] (setting [2]) was < 10 nM; in the test on HMPV A2 TN/94-49 (LLC-MK2, 168 h), < 1000 nM.
With `COc1cc(C(=O)NC[C@@](O)(c2ccccc2)c2cc(C(C)(C)O)c(F)c(-c3cc(Cl)c(F)cc3F)n2)cc2cc(Cl)c(C)nc12` [Example 65], the EC50 is 10 to 50 nM in test [1] (setting [2]) and < 1000 nM in the test on HMPV A2 TN/94-49 (LLC-MK2, 168 h).
The corresponding values for `Cc1nc2c(OC(F)F)cc(C(=O)NC[C@@](O)(c3ccccc3)c3cc(C(C)(C)O)c(F)c(-c4cc(Cl)c(F)cc4F)n3)cc2cc1Br` [Example 66] are > 50 nM and < 1000 nM.
For `COc1cc(C(=O)NC[C@@](O)(c2ccccc2)c2cc(C(C)(C)O)c(F)c(-c3ccc(F)c(Cl)c3Cl)n2)cc2cn(C3CC3)nc12` [Example 67], the EC50 is < 10 nM in test [1] (setting [2]) and < 1000 nM in the test on HMPV A2 TN/94-49 (LLC-MK2, 168 h).
The corresponding values for `COc1cc(C(=O)NC[C@@](O)(c2ccccc2)c2cc(C(C)(C)O)c(F)c(-c3ccc4c(c3Cl)OC(F)(F)O4)n2)cc2cn(C3CC3)nc12` [Example 74] are < 10 nM and < 1000 nM.
Taken in the same sequence, the figures for `COc1cc(C(=O)NC[C@@](O)(c2ccccc2)c2cc(C(C)(C)O)c(F)c(-c3cccc(Cl)c3Cl)n2)cc2cn(C3CC3)nc12` [Example 79] were < 10 nM and < 1000 nM.
Taken in the same sequence, the figures for `COc1cc(C(=O)NC[C@@](O)(c2ccccc2)c2cc(C(C)(C)O)c(F)c(-c3cc(F)c(F)cc3F)n2)cc2cn(C3CC3)nc12` [Example 86] were < 10 nM and > 1000 nM.
In the case of `COc1cc(C(=O)NC[C@@](O)(c2ccccc2)c2cc(C(C)(C)O)c(F)c(-c3ccc(F)c(Cl)c3F)n2)cc2cn(C3CC3)nc12` [Example 123], the EC50 in test [1] (setting [2]) was < 10 nM; with HMPV A2 TN/94-49 (LLC-MK2, 168 h) it was < 1000 nM.
For `COc1cc(C(=O)NC[C@@](O)(c2ccccc2)c2nc(-c3cc(Cl)c(F)cc3F)c(F)c(C(C)(C)O)c2F)cc2cn(C3CC3)nc12` [Example 127], the EC50 in test [1] (setting [2]) is < 10 nM; with HMPV A2 TN/94-49 (LLC-MK2, 168 h), < 1000 nM.
The corresponding values for `COc1cc(C(=O)NC[C@@](O)(c2ccccc2)c2cc(C(C)(C)O)c(Cl)c(-c3ccc4c(c3Cl)OC(F)(F)O4)n2)cc2cn(C3CC3)nc12` [Example 136] are < 10 nM and < 1000 nM.
`COc1cc(C(=O)NC[C@@](O)(c2ccccc2)c2cc(C(C)(C)O)c(Cl)c(-c3cc(Cl)c(F)cc3F)n2)cc2cn(C3CC3)nc12` [Example 144]: the half-maximal effective concentration (EC50) in test [1] is < 10 nM; with HMPV A2 TN/94-49, < 1000 nM.
Consider `COc1c(C(C)(C)O)cc([C@@](O)(CNC(=O)c2cc(OC)c3nn(C4CC4)cc3c2)C2CC2)nc1-c1cc(Cl)c(F)cc1F` [Example 164], for which the concentration giving a half-maximal response (EC50) in test [1] (setting [2]) is > 50 nM; in the test on HMPV A2 TN/94-49 (LLC-MK2, 168 h), > 1000 nM.
On to `COc1cc(C(=O)NC[C@](O)(c2cc(C3(O)CNC3)c(F)c(-c3cc(Cl)c(F)cc3F)n2)C2CC2)cc2cn(C3CC3)nc12` [Example 170], for which the EC50 in test [1] (setting [2]) is > 50 nM; in the test on HMPV A2 TN/94-49 (LLC-MK2, 168 h), > 1000 nM.
In the case of `COc1cc(C(=O)NC[C@](O)(c2cc(C(C)(C)F)c(F)c(-c3cc(Cl)c(F)cc3F)n2)C2CC2)cc2cn(C3CC3)nc12` [Example 177], the EC50 was 10 to 50 nM in test [1] (setting [2]) and > 1000 nM with HMPV A2 TN/94-49 (LLC-MK2, 168 h).
The corresponding values for `[2H]C([2H])([2H])C(O)(c1cc([C@@](O)(CNC(=O)c2cc(OC)c3nn(C4CC4)cc3c2)c2ccccc2)nc(-c2cc(Cl)c(F)cc2F)c1F)C([2H])([2H])[2H]` [Example 183] are < 10 nM and < 1000 nM.
Take `[2H]C([2H])([2H])C(O)(c1cc([C@@](O)(CNC(=O)c2cc(OC)n3nc(C4CC4)cc3c2)c2ccccc2)nc(-c2cc(Cl)c(F)cc2F)c1F)C([2H])([2H])[2H]` [Example 184]: the EC50 was < 10 nM in test [1] (setting [2]) and < 1000 nM with HMPV A2 TN/94-49 (LLC-MK2, 168 h).
Take `[2H]C([2H])([2H])C(O)(c1cc([C@@](O)(CNC(=O)c2cc(OC)c3nn(C(F)F)cc3c2)c2ccccc2)nc(-c2cc(Cl)c(F)cc2F)c1F)C([2H])([2H])[2H]` [Example 185]: the EC50 in test [1] (setting [2]) is < 10 nM; with HMPV A2 TN/94-49 (LLC-MK2, 168 h), < 1000 nM.
The corresponding values for `COc1cc(C(=O)NC[C@@](O)(c2ccccc2)c2cc(C(N)=O)c(F)c(-c3cc(Cl)c(F)cc3F)n2)cc2cn(C3CC3)nc12` [Example 189] are 10 to 50 nM and > 1000 nM.
Taken in the same sequence, the figures for `COc1cc(C(=O)NC[C@@](O)(c2ccccc2)c2cc(C(=O)NC3(C)CC3)c(F)c(-c3cc(Cl)c(F)cc3F)n2)cc2cn(C3CC3)nc12` [Example 195] were > 50 nM and > 1000 nM.
The corresponding values for `COc1cc(C(=O)NC[C@](O)(c2cc(N3CC[C@H](O)C3)cc(-c3cc(Cl)c(F)cc3F)n2)C2CC2)cc2cn(C3CC3)nc12` [Example 199] are > 50 nM and > 1000 nM.
